Active and inactive are the calls of the source. The rule behind the calls is not given here.
Experiments:
[1] = (§1) Anti-inflammatory activity against HBE cells assessed as inhibition of LPS-induced IL-6 level at 5 uM pretreated for 30 mins followed by LPS treatment for 24 hrs by ELISA relative to control; assay type: functional; conditions: Homo sapiens, time 24.5 hrs
[2] = (§2) Anti-inflammatory activity against HBE cells assessed as inhibition of LPS-induced IL-8 level at 5 uM pretreated for 30 mins followed by LPS treatment for 24 hrs by ELISA relative to control; assay type: functional; conditions: Homo sapiens, time 24.5 hrs
[3] = Cytotoxicity against HBE cells assessed as cell survival at 10 uM by MTT assay relative to control; assay type: toxicity, cell-based; conditions: human; for viability at 10 µM: HBE cells, read-out: Survival
HBE [4] = assay: as §1; assay type: functional; conditions: Homo sapiens, time 24.5 hrs
HBE [5] = assay: as §2; assay type: functional; conditions: Homo sapiens, time 24.5 hrs

| SMILES | inhibition at 5 µM [1] | inhibition at 5 µM [2] | also measured |
| --- | --- | --- | --- |
| Nc1cccc(Nc2nccc(Nc3ccc(Br)cc3)n2)c1 | 54% | 56% | – |
| Nc1cccc(Nc2nccc(Sc3ccc(Br)cc3)n2)c1 | 54% | 56% | – |
| Cn1cc(-c2ccnc(Nc3ccccn3)n2)c2ccccc21 | 68% | 56% | viability at 10 µM [3]: < 70% |
| Nc1cccc(Nc2nccc(Nc3cccc(C(F)(F)F)c3)n2)c1 | 54% | 56% | – |
| CC(C)(C)c1ccc(Nc2ccnc(Nc3cccc(N)c3)n2)cc1 | 54% | 56% | – |
| Nc1cccc(Nc2nccc(N)n2)c1 | – | – | inhibition (HBE [4]): inactive; inhibition (HBE [5]): inactive |
| COc1cccc(Nc2ccnc(Nc3cccc(N)c3)n2)c1 | 54% | 56% | – |
| Cn1cc(-c2ccnc(Nc3cccc(Cl)c3)n2)c2ccccc21 | 54% | 56% | – |
| COc1cccc(OC)c1Nc1ccnc(Nc2cccc(N)c2)n1 | 54% | 56% | – |
| Nc1cccc(Nc2nccc(Nc3ccc(F)cc3)n2)c1 | 54% | 56% | – |
| Cn1ccc(Nc2nccc(-c3cn(C)c4ccccc34)n2)n1 | 54% | 56% | – |
| Cn1cc(-c2ccnc(Nc3ccc(N)cc3)n2)c2ccccc21 | 54% | 56% | – |
| COc1c(Br)cccc1Nc1ccnc(Nc2cccc(N)c2)n1 | 54% | 56% | – |
| Nc1cccc(Nc2nccc(Sc3ccc(Cl)cc3)n2)c1 | 54% | 56% | – |
| Cn1cc(-c2ccnc(NC3CC3)n2)c2ccccc21 | – | – | inhibition (HBE [4]): inactive; inhibition (HBE [5]): inactive; viability at 10 µM [3]: < 70% |
| Nc1cccc(Nc2nccc(Nc3ccc(Cl)cc3)n2)c1 | 54% | 56% | – |
| Cn1cc(-c2ccnc(Nc3ccc(Cl)cc3)n2)c2ccccc21 | 54% | 56% | – |
| COc1cccc(Oc2ccnc(Nc3cccc(N)c3)n2)c1 | 54% | 56% | – |
| Cn1cc(-c2ccnc(Nc3ccc(C(F)(F)F)cc3)n2)c2ccccc21 | 54% | 56% | – |
| COc1ccc(Sc2ccnc(Nc3cccc(N)c3)n2)cc1 | 54% | 56% | – |
| Cn1cc(-c2ccnc(Nc3cccc(C(=O)O)c3)n2)c2ccccc21 | 54% | 56% | – |
| Cn1cc(-c2ccnc(NC3CCCCC3)n2)c2ccccc21 | – | – | inhibition (HBE [4]): inactive; inhibition (HBE [5]): inactive |
| Nc1cccc(Nc2nccc(Nc3ccc(F)c(F)c3)n2)c1 | 54% | 56% | – |
| Cn1cc(-c2ccnc(Nc3cccc(CC(=O)O)c3)n2)c2ccccc21 | 54% | 56% | – |
| COc1ccc(Nc2ccnc(Nc3cccc(N)c3)n2)cc1 | 54% | 56% | – |

| SMILES | inhibition at 5 µM [1] | inhibition at 5 µM [2] | also measured |
| --- | --- | --- | --- |
| Cn1cc(-c2ccnc(Nc3ccc(F)c(N)c3)n2)c2ccccc21 | 54% | 56% | – |
| Cc1cccc(Nc2ccnc(Nc3cccc(N)c3)n2)c1C | 54% | 56% | – |
| Nc1cccc(Nc2nccc(Nc3cccc(Br)c3)n2)c1 | 54% | 56% | – |
| Cn1cc(-c2ccnc(Nc3ccc(F)cc3)n2)c2ccccc21 | 54% | 56% | – |
| Cn1cc(-c2ccnc(Nc3cccc(O)c3)n2)c2ccccc21 | 54% | 56% | – |
| Cn1cc(-c2ccnc(Nc3ccccc3N)n2)c2ccccc21 | 61% | 69% | – |
| Cn1cc(-c2ccnc(Nc3ncccn3)n2)c2ccccc21 | – | 12% | inhibition (HBE [4]): inactive |
| COc1ccccc1Nc1ccnc(Nc2cccc(N)c2)n1 | 54% | 56% | – |
| Nc1cccc(Nc2nccc(Nc3cccc(F)c3)n2)c1 | 54% | 56% | – |
| Nc1cccc(Nc2nccc(Oc3ccccc3)n2)c1 | 54% | 56% | – |
| Nc1cccc(Nc2nccc(-c3c[nH]c4ccccc34)n2)c1 | – | – | inhibition (HBE [4]): Active; inhibition (HBE [5]): Active; Activity ([3]; hbe, 10 µM): Toxic |
| CCOc1ccc(Nc2ccnc(Nc3cccc(N)c3)n2)cc1 | 54% | 56% | – |
| Cn1cc(-c2ccnc(Nc3cccc(C#N)c3)n2)c2ccccc21 | 54% | 56% | – |
| COc1ccc(OC)c(Nc2ccnc(Nc3cccc(N)c3)n2)c1 | 54% | 56% | – |
| Cc1ccc(Oc2nccc(-c3cn(C)c4ccccc34)n2)cc1 | – | – | inhibition (HBE [4]): inactive; inhibition (HBE [5]): inactive |
| COc1ccccc1Nc1nccc(-c2cn(C)c3ccccc23)n1 | 38% | – | inhibition (HBE [5]): inactive |
| Nc1cccc(Nc2nccc(Oc3cccc(N)c3)n2)c1 | 54% | 56% | – |
| COc1ccc(C)cc1Nc1ccnc(Nc2cccc(N)c2)n1 | 54% | 56% | – |
| Nc1cccc(Nc2nccc(Oc3ccc4[nH]ccc4c3)n2)c1 | > 65% | > 65% | – |
| Cn1cc(-c2ccnc(Nc3cccc(F)c3)n2)c2ccccc21 | 54% | 56% | – |
| CC(C)Nc1nccc(-c2cn(C)c3ccccc23)n1 | – | – | inhibition (HBE [4]): inactive; inhibition (HBE [5]): inactive |
| Nc1cccc(Nc2nccc(Nc3cccc(Cl)c3)n2)c1 | 54% | 56% | – |
| CN(c1cccc(N)c1)c1nccc(-c2cn(C)c3ccccc23)n1 | – | – | inhibition (HBE [4]): inactive; inhibition (HBE [5]): inactive |
| Nc1cccc(Nc2nccc(Sc3ccc(C(F)(F)F)cc3)n2)c1 | 54% | 56% | – |
| Cn1cc(-c2ccnc(Nc3cc(N)ccc3F)n2)c2ccccc21 | 69% | 83% | – |

| SMILES | inhibition at 5 µM [1] | inhibition at 5 µM [2] | also measured |
| --- | --- | --- | --- |
| Cn1nccc1Nc1nccc(-c2cn(C)c3ccccc23)n1 | 54% | 64% | – |
| N#Cc1cccc(Nc2ccnc(Nc3cccc(N)c3)n2)c1 | 54% | 56% | – |
| Cn1cc(-c2ccnc(Nc3ccccc3)n2)c2ccccc21 | 85% | – | inhibition (HBE [5]): inactive |
| COc1ccc(Oc2ccnc(Nc3cccc(N)c3)n2)cc1OC | 54% | 56% | – |
| Cn1cc(-c2ccnc(Nc3cccc(C(F)(F)F)c3)n2)c2ccccc21 | 54% | 56% | – |
| Cn1cc(-c2ccnc(Nc3cccnc3)n2)c2ccccc21 | 54% | 56% | viability at 10 µM [3]: < 70% |
| Nc1cccc(Nc2nccc(Sc3ccc(F)cc3)n2)c1 | 54% | 56% | – |
| Cn1cc(-c2ccnc(Nc3ccc(Cl)c(N)c3)n2)c2ccccc21 | 54% | 56% | – |
| COc1ccccc1Oc1ccnc(Nc2cccc(N)c2)n1 | 54% | 56% | – |
| Nc1cccc(Nc2nccc(Oc3ccc(OC(F)(F)F)cc3)n2)c1 | 54% | 56% | – |
| Nc1cccc(Nc2nccc(Nc3ccc4[nH]ccc4c3)n2)c1 | > 65% | > 65% | – |
| Cc1ccc(Nc2ccnc(Nc3cccc(N)c3)n2)c(C)c1 | 54% | 56% | – |
| CCCCNc1nccc(-c2cn(C)c3ccccc23)n1 | – | – | inhibition (HBE [4]): inactive; inhibition (HBE [5]): inactive; viability at 10 µM [3]: < 70% |
| COc1cccc(Nc2ccnc(Nc3cccc(N)c3)n2)c1OC | 54% | 56% | – |
| Cn1cc(-c2ccnc(N)n2)c2ccccc21 | 37% | 38% | – |
| Nc1ccc(Oc2ccnc(Nc3cccc(N)c3)n2)cc1 | 54% | 56% | – |
| Nc1cccc(Nc2nccc(Nc3ccc(C(F)(F)F)cc3)n2)c1 | 54% | 56% | – |
| Nc1cccc(Nc2nccc(Nc3ccccc3)n2)c1 | 54% | 56% | – |
| COc1ccc(N)cc1Nc1nccc(-c2cn(C)c3ccccc23)n1 | 64% | 54% | – |
| COc1cccc(Nc2nccc(-c3cn(C)c4ccccc34)n2)c1 | 54% | 56% | – |
| COc1ccc(Nc2nccc(-c3cn(C)c4ccccc34)n2)cc1 | 54% | 56% | – |
| Cc1ccccc1Nc1ccnc(Nc2cccc(N)c2)n1 | 54% | 56% | – |
| COc1cc(OC)cc(Oc2ccnc(Nc3cccc(N)c3)n2)c1 | 54% | 56% | – |
| COc1ccc(Nc2ccnc(Nc3cccc(N)c3)n2)c(OC)c1 | 54% | 56% | – |
